Counter-ions that a name gives are not always drawn. Square brackets hold non-standard residues; d marks the D form. Peptide text beside a SMILES is read from it. * marks the point of attachment. Ala(6-iPr-benzothiazol-2-yl) = CC(C)c1ccc2nc(C[C@H](N)C(=O)O)sc2c1; 2Nal = N[C@@H](Cc1ccc2ccccc2c1)C(=O)O; Isovaleryl = CC(C)CC(=O)*; Propionyl = CCC(=O)*; Tfa = O=C(C(F)(F)F)*
The compounds below were run against DCN1 (Homo sapiens (Human), UniProt Q96GG9) (assay: Competitive FP binding assay). Details: not given.
Chain of DCN1 (Q96GG9 58-259): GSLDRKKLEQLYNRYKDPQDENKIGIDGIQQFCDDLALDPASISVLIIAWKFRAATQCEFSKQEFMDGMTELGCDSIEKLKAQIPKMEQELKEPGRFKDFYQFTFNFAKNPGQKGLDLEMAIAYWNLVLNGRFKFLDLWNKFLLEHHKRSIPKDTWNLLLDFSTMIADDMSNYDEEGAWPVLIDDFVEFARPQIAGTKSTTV
Summary of the method: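 FP competition with DCN1 in 100 mM phosphate pH 6.5, 0.02% Tween-20, 2% DMSO, probe 5 nM final. Equilibrated 30 min at room temperature with shaking. DCN1 was His6-tagged (uncleaved), expressed in E. coli Rosetta2 and purified by Ni-NTA and gel filtration.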
`CC[C@H](C)[C@H](NC(=O)[C@H](Cc1ccc2ccccc2c1)NC(=O)C(F)(F)F)C(=O)N[C@@H](CCCCN)C(=O)N[C@@H](CC(C)C)C(N)=O` [Example 137] (Tfa-[2Nal]IKL-NH2) was tested, and the “Binding affinity to DCN1 (IC50 (nM))” value was “precipitation”.

Same assay, conditions: bounds given in μM; read-out: Binding affinity to DCN1 (IC50)
`CCC(=O)N[C@@H](Cc1nc2ccc(C(C)C)cc2s1)C(=O)NCCN` [Example 53, (S)—N-(2-aminoethyl)-3-(6-isopropylbenzo[d]thiazol-2-yl)-2-propionamidopropanamide] was tested, and the IC50 was > 10 µM.
In the case of `CCC(=O)N[C@@H](Cc1nc(C)c(-c2ccncc2)s1)C(=O)N[C@H](CN)Cc1ccccc1` [Example 230], the IC50 is reported as > 10 µM.
For `CCC(=O)N[C@@H](Cc1nc2ccc(Cl)cc2s1)CN(Cc1ccccc1)Cc1ccccc1` [Example 259], the IC50 was > 10 µM.
For `NCCNC(=O)[C@H](Cc1nc2ccc(Cl)cc2s1)NC(=O)CCOc1ccccc1` [Example 237], the IC50 was > 10 µM.
With `CCC(=O)N[C@@H](Cc1nc2c(F)cccc2s1)C(=O)N[C@H](C(=O)N[C@@H](CCCCN)C(=O)NC(c1ccccc1)c1ccccc1)C1CCCC1` [Example 26] the IC50 was > 3 µM.
`CCC(=O)N[C@@H](Cc1nc(C)c(-c2cccc(C(F)(F)F)c2)s1)C(=O)N[C@H](CN)Cc1ccccc1` [Example 233] was tested, and the IC50 was > 10 µM.
With `CCC(=O)N[C@@H](Cc1nc(C)n(-c2ccccc2)n1)C(=O)N[C@H](CN)Cc1ccccc1` [DI-532] the IC50 was > 10 µM.
With `CCC(=O)N[C@@H](Cc1nc2ccc(C(C)C)cc2s1)C(=O)N[C@@H](C)CN` [Example 54, (S)—N—((S)-1-aminopropan-2-yl)-3-(6-isopropylbenzo[d]thiazol-2-yl)-2-propionamidopropanamide] the IC50 was > 10 µM.
With `CC(C)c1ccc2nc(C[C@H](NC(=O)C3CC3)C(=O)NCCN)sc2c1` [Example 96] the IC50 was > 10 µM.
In the case of `CC[C@H](C)[C@H](NC(=O)[C@@H](N)Cc1ccc2ccccc2c1)C(=O)N[C@@H](CCCCN)C(=O)N[C@@H](CC(C)C)C(N)=O` [Example 142] (H-[2Nal]IKL-NH2), the IC50 is reported as > 10 µM.

Same assay, conditions: read-out: Binding affinity to DCN1 (IC50 (nM))
In the case of `CCC(=O)N[C@@H](Cc1nc2ccc(C(C)C)cc2s1)C(=O)N[C@H](CNC(=O)c1nnc[nH]1)C1CCCCC1` [Example 65], the IC50 is reported as 0.119 µM.
`CCC(=O)N[C@@H](Cc1nc2ccc(Cl)cc2s1)C(=O)N[C@H](C(=O)N[C@@H](CCCCN(C)C)C(=O)N[C@@H]1CCOc2ccccc21)C1CCOCC1` [Example 38] gave an IC50 of 0.123 µM.
With `CCC(=O)N[C@@H](Cc1nc2ccc(C)cc2s1)C(=O)N[C@@H](Cc1ccccn1)C(=O)N[C@@H](CCCCN)C(=O)N[C@@H]1CCOc2ccccc21` [Example 179] the IC50 was 0.133 µM.
For `CCC(=O)N[C@@H](Cc1nc2ccc(Cl)cc2s1)C(=O)N[C@H](C(=O)N[C@@H](CCCCN)C(=O)NCc1ccccn1)C1CCOCC1` [Example 241], the IC50 was 0.913 µM.
Compound `CCC(=O)N[C@@H](Cc1ccc2ccccc2c1)C(=O)N[C@H](C(=O)N[C@@H](CCCCN)C(=O)NC(c1ccc(F)cc1)c1ccc(F)cc1)[C@@H](C)CC` [Example 128] has an IC50 of 0.321 ± 0.032 µM.
Work on `CCC(=O)N[C@@H](Cc1nc2ccc(C(C)C)cc2s1)C(=O)N[C@H](COCCN1CCOCC1)C1CCCCC1` [Example 85] yielded an IC50 of 0.138 µM.
`CCC(=O)N[C@@H](Cc1ccc2ccccc2c1)C(=O)N[C@H](C(=O)N[C@@H](CCCCN)C(=O)N[C@@H]1CCc2ccccc21)[C@@H](C)CC` [Example 13] showed an IC50 of 0.913 µM.
`CCC(=O)N[C@@H](Cc1nc2ccc(C(C)C)cc2s1)C(=O)N[C@H](Cn1cc(CO)nn1)C1CCCCC1` [Example 83] showed an IC50 of 0.656 µM.
With `CCC(=O)N[C@@H](Cc1nc2ccc(C(C)C)cc2s1)C(=O)N[C@H](CNc1ccncn1)C1CCCCC1` [Example 78] the IC50 was 0.189 µM.
With `CCC(=O)N[C@@H](Cc1nc2ccc(C(C)C)cc2s1)C(=O)N[C@H](CNC(=O)NC1CCNCC1)C1CCCCC1` [DI-749] the IC50 was 0.0529 µM.
Compound `CCC(=O)N[C@H](CNC(=O)C1(CN)CCCCC1)Cc1nc2ccc(C(C)C)cc2s1` [Example 117] has an IC50 of 0.875 µM.
In the case of `CCC(=O)N[C@@H](Cc1nc2ccc(C(C)C)cc2s1)C(=O)N[C@H](C(=O)N[C@@H](CCCCN)C(=O)N[C@@H](CC(C)C)C(N)=O)[C@@H](C)CC` [Example 273] (Propionyl-[Ala(6-iPr-benzothiazol-2-yl)]IKL-NH2), the IC50 is reported as 0.051 µM.
In the case of `CNC(=O)N[C@@H](Cc1nc2ccc(Cl)cc2s1)C(=O)N[C@H](C(=O)N[C@@H](CCCCN)C(=O)N[C@@H]1CCOc2ccccc21)C1CCOCC1` [Example 209], the IC50 is reported as 0.278 µM.
Compound `CCC(=O)N[C@@H](Cc1nc2ccc(C(C)C)cc2s1)C(=O)N[C@H](CNC(=O)NC1CCN(C)CC1)C1CCCCC1` [Example 75] has an IC50 of 0.0756 µM.
`CCC(=O)N[C@@H](Cc1nc(C)c(C(C)C)s1)C(=O)N[C@H](C(=O)N[C@@H](CCCCN)C(=O)N[C@@H]1CCOc2ccccc21)C1CCOCC1` [Example 187] showed an IC50 of 0.886 µM.
In the case of `CCC(=O)N[C@@H](Cc1nc2ccc(Cl)cc2s1)C(=O)N[C@H](C(=O)N[C@@H](CCCCN)C(=O)NC(c1ccccc1)c1ccccc1)C1CCCC1` [Example 30], the IC50 is reported as 0.193 µM.
With `CC[C@H](C)[C@H](NC(=O)[C@H](Cc1nc2ccc(C(C)C)cc2s1)NC(=O)CC(C)C)C(=O)N[C@@H](CCCCN)C(=O)N[C@@H](CC(C)C)C(N)=O` [Example 277] (Isovaleryl-[Ala(6-iPr-benzothiazol-2-yl)]IKL-NH2) the IC50 was 0.517 µM.
`CCC(=O)N[C@@H](Cc1nc2ccc(OC)cc2o1)C(=O)N[C@H](C(=O)N[C@@H](CCCCN)C(=O)NC(c1ccccc1)c1ccccc1)[C@@H](C)CC` [Example 157] showed an IC50 of 0.265 µM.
Work on `CCC(=O)N[C@@H](Cc1ccc2ccccc2n1)C(=O)N[C@H](C(=O)N[C@@H](CCCCN)C(=O)NC(c1ccccc1)c1ccccc1)[C@@H](C)CC` [Example 130] yielded an IC50 of 2.37 µM.
`CCC(=O)N[C@@H](Cc1nc(C)c(-c2ccc(Cl)cc2)s1)C(=O)N[C@H](CN)Cc1ccccc1` [Example 102] showed an IC50 of 1.28 µM.
`CCC(=O)N[C@@H](Cc1nc2ccc(C(C)C)cc2s1)C(=O)NC(CSc1nncn1C)C1CCCCC1` (stereo partly drawn) [Example 84] was tested, and the IC50 was 0.242 µM.
In the case of `CCC(=O)N[C@@H](Cc1ccc2ccccc2c1)C(=O)N[C@H](C(=O)N[C@@H](CCCCN(C)C)C(=O)NC(c1ccccc1)c1ccccc1)C1CCCC1` [Example 146], the IC50 is reported as 0.464 µM.
Compound `CCC(=O)N[C@@H](Cc1ccc2ccccc2c1)C(=O)N[C@H](C(=O)N[C@@H](CCCCN)C(=O)NC(c1ccccc1)c1ccccc1)[C@@H](C)CC` [Example 12] has an IC50 of 0.611 ± 0.193 µM.
For `CCC(=O)N[C@@H](Cc1ccc2ccccc2c1)C(=O)N[C@H](C(=O)N[C@@H](CCCCN)C(=O)NC(c1ccccc1)c1ccccc1)C1CCCC1` [Example 19], the IC50 was 0.27 µM.
Work on `CCC(=O)N[C@@H](Cc1nc2ccc(Cl)cc2s1)C(=O)N[C@@H](C[C@H]1CC[C@H](CNC(=O)COCCOCCOCCNC(=O)CCCC[C@@H]2SC[C@@H]3NC(=O)N[C@@H]32)CC1)C(=O)N[C@@H](CCCCN(C)C)C(=O)N[C@@H]1CCOc2ccccc21` [DI-427biotin] yielded an IC50 of 0.189 µM.
In the case of `CCC(=O)N[C@@H](Cc1nc2ccc(Cl)cc2s1)C(=O)N[C@@H](Cc1ccccn1)C(=O)N[C@@H](CCCCN)C(=O)N[C@@H]1CCOc2ccccc21` [Example 202], the IC50 is reported as 0.251 µM.
Work on `CCC(=O)N[C@@H](Cc1nc(C)c(-c2cccc(Br)c2)s1)C(=O)N[C@H](CN)Cc1ccccc1` [Example 232] yielded an IC50 of 0.984 µM.
Work on `CCC(=O)N[C@@H](Cc1ccc2ccccc2c1)C(=O)N[C@H](C(=O)N[C@@H](CCCCN)C(=O)NC(c1ccccc1)c1ccccc1)C1CCCCC1` [Example 20] yielded an IC50 of 0.341 µM.
For `CCC(=O)N[C@@H](Cc1nc2ccc(Cl)cc2s1)C(=O)N[C@H](C(=O)N[C@@H](CCCCN)C(=O)N[C@@H]1CCOc2cccc(Cl)c21)C1CCCC1` [Example 172], the IC50 was 0.121 µM.

These compounds were tested on NRF2 (assay: Western blotting of NRF2 and NRF2-regulated proteins in THLE2 liver cell line). Details: THLE2 liver cell line, 10 μM, different time points.
Assay type: cell-based
Protocol: A key function of cullin neddylation is to control E3 ubiquitin ligase activity of the cullin complex, which in turn regulates protein turnover in cells. DI-591 (Example 58) was evaluated for its effect on neddylation of 5 different cullins in the THLE2 liver cell line with the data shown in FIG. 1. Immortalized THLE2 liver cell line was treated by a dose-range of DCN1 inhibitor DI-591 or a dose-range of MLN4924 for 24 h. The protein levels of neddylated- and un-neddylated-cullin family proteins and several well-known substrates of cullins were examined by western blotting analysis. GAPDH was used as a loading control. […] Immunohistochemical data confirmed the increased NRF2 protein by Example 58 in liver cells.
NRF2 is a transcriptional factor and a master regulator of antioxidant responses, regulating numerous detoxifying and antioxidant genes, such as the phase II detoxification enzymes heme oxygenase (HO1) and NAD(P)H:quinone oxidoreductase-1 (NQ01) (36). DI-591 (Example 58) was compared to dimethyl fumarate (DMF) for their effect on NRF2 and NQ01 protein levels in the THLE2 liver cell line with DI-591DD included as a control with the data shown in FIG. 3. THLE2 liver cell line was treated by DI-591 at 10 μM, DI-591DD at 10 μM or DMF at 10 μM for different time points.
Immortalized liver THLE2 (ATCC® CRL-2706™) cell lines was purchased from the ATCC (Rockville, MD). The cell line was maintained in BEGM Bronchial Epithelial Cell Growth Medium from Lonza/Clonetics Corporation (CC3170, Walkersville, MD) supplemented with 10% FBS and pen-strep at 37° C. in a humidified incubator with 5% CO2. Esophageal cancer KYSE140 cell line (ACC 348) was purchased from DSMZ (Braunschweig, Germany). The cell line was maintained RPMI1640 supplemented with 10% FBS and pen-strep at 37° C. in a humidified incubator with 5% CO2.
Treated cells were lysed by RIPA buffer supplemented with protease inhibitor. The expression level of indicated proteins was examined by western blotting analysis. GAPDH was used as a loading control. Antibodies were purchased: Cullin 1 (sc-11384), Cullin2 (sc-10781), Cullin5 (sc-13014) and Cullin7 (sc-134565) from Santa Cruz Biotech. (Santa Cruz, CA); Cullin 4A (PA5-14542), Cullin 4B (PA5-35239), Cullin9 (PA5-20277), DCN2 (DCUN1D2, PA5-31607) and DCN3 (DCUN1D3, PA5-44000) from ThermoFisher Scientific (Wayne, MI); Cullin 3 (2759), NRF2 (12721), HO-1 (70081), NQ01 (3187), Cyclin E (4129), Bim (2819), Keap1 (8047) and UBC12 (4913) from Cell Signaling Technology (Boston, MA); DCN1 (GWB-E3D700) from GenWay Biotech (San Diego, CA). Results are representative of three independent experiments.
For `COC(=O)/C=C/C(=O)OC` [Dimethyl fumarate, dimethyl fumarate, reference compound], the “accumulation of NRF2 and NQ01 protein” value was “stimulates the accumulation”.

Same assay, conditions: THLE2 liver cell line, 10 μM, different time points; listed as dimethyl fumarate
In the case of `COC(=O)/C=C/C(=O)OC` [Dimethyl fumarate, dimethyl fumarate, reference compound], the “accumulation of NRF2 and NQ01 protein” value is reported as “stimulate the accumulation”.
